According to patent publication US9555039B2, “Piperidine derivatives and compositions for the inhibition of nicotinamide phosphoribosyltransferase (NAMPT)” (Forma TM, LLC., priority 2011, dated 2017):

Each compound was assayed against T1, Recombinant His-tagged NAMPT (Homo sapiens, UniProt P43490) (assay: Biochemical inhibition assay: NAMPT enzymatic reaction, NMN quantified by mass spectrometry). Conditions: 33 nM NAMPT, 1 μM NAM, 100 μM PRPP, 2.5 mM ATP, 30 minutes at room temperature; read-out: Biochem IC50.
T1 construct: His; host or cells: E. coli
T1 sequence (P43490 whole entry): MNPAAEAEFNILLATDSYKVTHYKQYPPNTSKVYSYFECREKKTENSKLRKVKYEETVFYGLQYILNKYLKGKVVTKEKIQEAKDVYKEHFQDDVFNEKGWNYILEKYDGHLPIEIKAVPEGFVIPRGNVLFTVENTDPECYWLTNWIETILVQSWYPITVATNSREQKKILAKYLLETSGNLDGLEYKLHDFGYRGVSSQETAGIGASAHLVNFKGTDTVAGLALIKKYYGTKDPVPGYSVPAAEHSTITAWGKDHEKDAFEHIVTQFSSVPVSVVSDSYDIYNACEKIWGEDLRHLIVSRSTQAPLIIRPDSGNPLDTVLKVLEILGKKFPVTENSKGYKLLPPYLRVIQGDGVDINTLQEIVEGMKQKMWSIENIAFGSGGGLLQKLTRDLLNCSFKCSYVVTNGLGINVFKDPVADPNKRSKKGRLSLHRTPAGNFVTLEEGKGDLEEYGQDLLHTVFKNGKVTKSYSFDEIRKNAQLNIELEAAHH
Description: Biochemical Inhibition Assay
NAMPT Protein Purification
Recombinant His-tagged NAMPT was produced in E. coli cells, purified over a Ni column, and further purified over a size-exclusion column by XTAL Biostructures.
The NAMPT Enzymatic Reaction
The NAMPT enzymatic reactions were carried out in Buffer A (50 mM Hepes pH 7.5, 50 mM NaCl, 5 mM MgCl2, and 1 mM THP) in 96-well V-bottom plates. The compound titrations were performed in a separate dilution plate by serially diluting the compounds in DMSO to make a 100× stock. […] The compound and enzyme mix was incubated for 15 minutes at room temperature, then 10 μL of 10× substrate and co-factors in Buffer A were added to the test well to make a final concentration of 1 μM NAM, 100 μM 5-Phospho-D-ribose 1-diphosphate (PRPP), and 2.5 mM Adenosine 5′-triphosphate (ATP). The reaction was allowed to proceed for 30 minutes at room temperature, then was quenched with the addition of 11 μL of a solution of formic acid and L-Cystathionine to make a final concentration of 1% formic acid and 10 μM L-Cystathionine. Background and signal strength was determined by addition (or non-addition) of a serial dilution of NMN to a pre-quenched enzyme and cofactor mix.
A mass spectrometry-based assay was used to measure the Nampt reaction product (NMN) and the internal control (L-Cystathionine). NMN and L-Cystathionine were detected using the services of Biocius Lifesciences with the RapidFire system. In short, the NMN and L-Cystathionine are bound to a graphitic carbon cartridge in 0.1% formic acid, eluted in 30% acetonitrile buffer, and injected into a Sciex 4000 mass spectrometer. The components of the sample were ionized with electrospray ionization and the positive ions were detected. […] The fragments are quantified and the analyzed by the following method.
First the NMN signal is normalized to the L-Cystathionine signal by dividing the NMN signal by the L-Cystathionine signal for each well. The signal from the background wells are averaged and subtracted from the test plates.
Wherein x denotes the average signal of the compound treated wells and y denotes the average signal of the DMSO treated wells.
IC50s are Determined Using Excel and this Formula.
Wherein X denotes the compound concentration 1, Y denotes the compound concentration 2, XX denotes the % inhibition at compound concentration 1 (X), and YY denotes the % inhibition at compound concentration 2 (Y).

| Compound | IC50 |
| --- | --- |
| O=C(NCCCC1CCN(C(=O)c2ccccc2)CC1)c1cc2cnccc2[nH]1 [N-(3-(1-benzoylpiperidin-4-yl)propyl)-1H-pyrrolo[3,2-c]pyridine-2-carboxamide] | 126 nM |
| O=C(NCCCOC1CCN(C(=O)c2ccccc2F)CC1)c1cc2cnccc2[nH]1 [N-(3-((1-(2-fluorobenzoyl)piperidin-4-yl)oxy)propyl)-1H-pyrrolo[3,2-c]pyridine-2-carboxamide] | 35 nM |
| Cn1cc(CC(=O)N2CCC(CCCCNC(=O)c3cc4cnccc4[nH]3)CC2)c2ccccc21 [N-(4-{1-[2-(1-methyl-1H-indol-3-yl)acetyl]piperidin-4-yl}butyl)-1H-pyrrolo[3,2-c]pyridine-2-carboxamide] | 9.1 nM |
| O=C(NCCCCC1CCN(C(=O)c2cc(F)ccc2F)CC1)c1cc2cnccc2[nH]1 [N-(4-{1-[(2,5-difluorophenyl)carbonyl]piperidin-4-yl}butyl)-1H-pyrrolo[3,2-c]pyridine-2-carboxamide] | 10.3 nM |
| O=C(NCCCCC1CCN(C(=O)c2ccccc2Cl)CC1)c1cc2cnccc2[nH]1 [N-(4-{1-[(2-chlorophenyl)carbonyl]piperidin-4-yl}butyl)-1H-pyrrolo[3,2-c]pyridine-2-carboxamide] | 15.8 nM |
| O=C(NCCCCC1CCN(C(=O)c2ccccc2Cl)CC1)c1ccc2nccn2c1 [N-(4-{1-[(2-chlorophenyl)carbonyl]piperidin-4-yl}butyl)imidazo[1,2-a]pyridine-6-carboxamide] | 5 nM |
| O=C(NCCCCC1CCN(C(=O)c2csc(-c3ccccc3)n2)CC1)c1ccc2nccn2c1 [N-(4-{1-[(2-phenyl-1,3-thiazol-4-yl)carbonyl]piperidin-4-yl}butyl)imidazo[1,2-a]pyridine-6-carboxamide] | 52.3 nM |
| Cc1ccc(C(=O)N2CCC(CCCCNC(=O)c3ccc4nccn4c3)CC2)cc1F [N-(4-{1-[(3-fluoro-4-methylphenyl)carbonyl]piperidin-4-yl}butyl)imidazo[1,2-a]pyridine-6-carboxamide] | 39.4 nM |
| O=C(NCCCCC1CCN(C(=O)c2cc3cc(F)ccc3[nH]2)CC1)c1ccc2nccn2c1 [N-(4-{1-[(5-fluoro-1H-indol-2-yl)carbonyl]piperidin-4-yl}butyl)imidazo[1,2-a]pyridine-6-carboxamide] | 71.3 nM |
| COc1ccc(F)cc1S(=O)(=O)N1CCC(CCCCNC(=O)c2cc3cnccc3[nH]2)CC1 [N-(4-{1-[(5-fluoro-2-methoxybenzene)sulfonyl]piperidin-4-yl}butyl)-1H-pyrrolo[3,2-c]pyridine-2-carboxamide] | 23.2 nM |
| O=C(NCCCCC1CN(C(=O)c2ccccc2)C1)c1cc2cnccc2[nH]1 [N-[4-(1-benzoylazetidin-3-yl)butyl]-1H-pyrrolo[3,2-c]pyridine-2-carboxamide] | 23.2 nM |
| CC(C)c1ncoc1C(=O)N1CCC(CCCCNC(=O)c2cc3ccncc3s2)CC1 [N-[4-(1-{[4-(propan-2-yl)-1,3-oxazol-5-yl]carbonyl}piperidin-4-yl)butyl]thieno[2,3-c]pyridine-2-carboxamide] | 7.4 nM |
| COCc1ccc(C(=O)N2CCC(CCCCNC(=O)c3cc4ccncc4s3)CC2)nc1 [N-[4-(1-{[5-(methoxymethyl)pyridin-2-yl]carbonyl}piperidin-4-yl)butyl]thieno[2,3-c]pyridine-2-carboxamide] | 18.3 nM |
| O=C(NCCCCC1CCN(C(=O)c2ccc(C(F)(F)F)cn2)CC1)c1ccc2nccn2c1 [N-[4-(1-{[5-(trifluoromethyl)pyridin-2-yl]carbonyl}piperidin-4-yl)butyl]imidazo[1,2-a]pyridine-6-carboxamide] | 82.3 nM |
| Cc1oncc1S(=O)(=O)N1CCC(CCCCNC(=O)c2cc3cnccc3[nH]2)CC1 [N-{4-[1-(5-methyl-1,2-oxazole-4-sulfonyl)piperidin-4-yl]butyl}-1H-pyrrolo[3,2-c]pyridine-2-carboxamide] | 36.7 nM |
| O=C(NCCCCC1CCN(C(=O)c2ccc3nccn3c2)CC1)c1ccc2nccn2c1 [N-{4-[1-({imidazo[1,2-a]pyridin-6-yl}carbonyl)piperidin-4-yl]butyl}imidazo[1,2-a]pyridine-6-carboxamide] | 8.5 nM |
| O=C(NCc1ccc(S(=O)(=O)c2ccc(C(=O)N3CCCC3)cc2)cc1)c1cnc2[nH]ncc2c1 [N-{[4-({4-[(pyrrolidin-1-yl)carbonyl]benzene}sulfonyl)phenyl]methyl}-1H-pyrazolo[3,4-b]pyridine-5-carboxamide] | 15.8 nM |
| O=C(NCc1ccc(S(=O)(=O)c2ccc(C(=O)N3CCCC3)cc2)cc1)c1cc2ccncc2s1 [N-{[4-({4-[(pyrrolidin-1-yl)carbonyl]benzene}sulfonyl)phenyl]methyl}thieno[2,3-c]pyridine-2-carboxamide] | 3.7 nM |

Each compound was assayed on A2780 cells (assay: In-vitro cell proliferation assay (SRB, 72 hours)). Conditions: Homo sapiens, sulforhodamine B (SRB) assay.
Type: cell-based
Description: In-Vitro Cell Proliferation Assay
After overnight incubation at 37° C. and 5% CO2, the compound titrations were performed in a separate dilution plate by serially diluting the compounds in DMSO to make a 1000× stock. The compounds were then further diluted to 10× final concentration in culture media, whereupon 20 μL of each dilution was added to the plated cells with controls (e.g. DMSO and blank) to make a final volume of 200 μL. The final DMSO concentration in each well was 0.1%. The plates were then incubated for 72 hours at 37° C. in a 5% CO2 incubator. The number of viable cells was then assessed using sulforhodamine B (SRB) assay. Cells were fixed at 4° C. for 1 hour with the addition of 50 μL 30% trichloroacetic acid (TCA) to make a final concentration of 6% TCA. The plates were washed four times with H2O and allowed to dry for at least 1 hour, whereupon 100 μL of a 4% SRB in 1% acetic acid solution was added to each well and incubated at room temperature for at least 30 minutes. The plates were then washed three times with 1% acetic acid, dried, and treated with 100 μL of 10 mM Tris-Base solution. The plates were then read in a microplate reader at an absorbance of 570 nm. Background was generated on a separate plate with media only.
Method for Determining % Inhibition
First, the signals from the background plate are averaged, then the background was subtracted from the test plates.
wherein x denotes the average signal of the compound-treated cells and y denotes the average signal of the DMSO-treated cells.
wherein X denotes the compound concentration 1, Y denotes the compound concentration 2, XX denotes the % inhibition at compound concentration 1 (X), and YY denotes the % inhibition at compound concentration 2 (Y).

| Compound | IC50 |
| --- | --- |
| O=C(NCCCC1CCN(C(=O)c2ccccc2)CC1)c1cc2cnccc2[nH]1 [N-(3-(1-benzoylpiperidin-4-yl)propyl)-1H-pyrrolo[3,2-c]pyridine-2-carboxamide] | 432 nM |
| O=C(NCCCOC1CCN(C(=O)c2ccccc2F)CC1)c1cc2cnccc2[nH]1 [N-(3-((1-(2-fluorobenzoyl)piperidin-4-yl)oxy)propyl)-1H-pyrrolo[3,2-c]pyridine-2-carboxamide] | 177 nM |
| O=C(NCCc1ccc(OCc2ccccc2)cc1)c1cc2cnccc2[nH]1 [N-(4-(benzyloxy)phenethyl)-1H-pyrrolo[3,2-c]pyridine-2-carboxamide] | 2000 nM |
| Cn1cc(CC(=O)N2CCC(CCCCNC(=O)c3cc4cnccc4[nH]3)CC2)c2ccccc21 [N-(4-{1-[2-(1-methyl-1H-indol-3-yl)acetyl]piperidin-4-yl}butyl)-1H-pyrrolo[3,2-c]pyridine-2-carboxamide] | 11.2 nM |
| O=C(NCCCCC1CCN(C(=O)c2cc(F)ccc2F)CC1)c1cc2ccncc2s1 [N-(4-{1-[(2,5-difluorophenyl)carbonyl]piperidin-4-yl}butyl)thieno[2,3-c]pyridine-2-carboxamide] | 1.6 nM |
| Cc1cccc(C(=O)N2CCC(CCCCNC(=O)c3cc4ccncc4s3)CC2)c1F [N-(4-{1-[(2-fluoro-3-methylphenyl)carbonyl]piperidin-4-yl}butyl)thieno[2,3-c]pyridine-2-carboxamide] | 12.6 nM |
| COc1cc(OC)cc(C(=O)N2CCC(CCCCNC(=O)c3ccc4nccn4c3)CC2)c1 [N-(4-{1-[(3,5-dimethoxyphenyl)carbonyl]piperidin-4-yl}butyl)imidazo[1,2-a]pyridine-6-carboxamide] | 2.8 nM |
| O=C(NCCCCC1CCN(C(=O)c2cccc(Cl)c2)CC1)c1cc2cnccc2[nH]1 [N-(4-{1-[(3-chlorophenyl)carbonyl]piperidin-4-yl}butyl)-1H-pyrrolo[3,2-c]pyridine-2-carboxamide] | 11.9 nM |
| COc1cccc(C(=O)N2CCC(CCCCNC(=O)c3cc4cnccc4[nH]3)CC2)c1 [N-(4-{1-[(3-methoxyphenyl)carbonyl]piperidin-4-yl}butyl)-1H-pyrrolo[3,2-c]pyridine-2-carboxamide] | 3.8 nM |
| COc1cccc(C(=O)N2CCC(CCCCNC(=O)c3ccc4nccn4c3)CC2)c1 [N-(4-{1-[(3-methoxyphenyl)carbonyl]piperidin-4-yl}butyl)imidazo[1,2-a]pyridine-6-carboxamide] | 6.6 nM |
| O=C(NCCCCC1CCN(C(=O)c2ccc(F)cc2)CC1)c1cc2cnccc2[nH]1 [N-(4-{1-[(4-fluorophenyl)carbonyl]piperidin-4-yl}butyl)-1H-pyrrolo[3,2-c]pyridine-2-carboxamide] | 14.7 nM |
| COc1ccc(Cl)cc1C(=O)N1CCC(CCCCNC(=O)c2cc3cnccc3[nH]2)CC1 [N-(4-{1-[(5-chloro-2-methoxyphenyl)carbonyl]piperidin-4-yl}butyl)-1H-pyrrolo[3,2-c]pyridine-2-carboxamide] | 3.3 nM |
| O=C(NCCCCC1CCN(C(=O)c2ccc(-n3cccn3)cc2)CC1)c1ccc2nccn2c1 [N-[4-(1-{[4-(1H-pyrazol-1-yl)phenyl]carbonyl}piperidin-4-yl)butyl]imidazo[1,2-a]pyridine-6-carboxamide] | 67.1 nM |
